Data reported in publication PMC6981637, “Tetrahydroquinoline-Isoxazole/Isoxazoline Hybrid Compounds as Potential Cholinesterases Inhibitors: Synthesis, Enzyme Inhibition Assays, and Molecular Modeling Studies” (International Journal of Molecular Sciences, 2019).
Values joined by “and” are separate entries in the source; they are usually repeats but may differ in a detail not shown here. Equal values may be shown once. Read-outs that look alike come from different tables or passages of the source.

Key:
[1] = biological target: AChE (from Electrophorus electricus) (Electrophorus electricus, UniProt O42275)
BChE (from bovine serum) = biological target: T1, BChE (from bovine serum) (Bos taurus, UniProt P32749); test: BChE inhibitory activity (Ellman method); type: biochemical; settings: for IC50: average from three independent experiments ± SEM; for selectivity against BChE: conclusions
T1 construct: purchased Sigma-Aldrich

[2] = Table 1, THQ–isoxazoline hybrids 5, read-out: IC50 BChE
[3] = Table 2, THQ–isoxazole hybrids 6, read-out: BChE (IC50)

Sequence of AChE (from Electrophorus electricus) (O42275 24-633): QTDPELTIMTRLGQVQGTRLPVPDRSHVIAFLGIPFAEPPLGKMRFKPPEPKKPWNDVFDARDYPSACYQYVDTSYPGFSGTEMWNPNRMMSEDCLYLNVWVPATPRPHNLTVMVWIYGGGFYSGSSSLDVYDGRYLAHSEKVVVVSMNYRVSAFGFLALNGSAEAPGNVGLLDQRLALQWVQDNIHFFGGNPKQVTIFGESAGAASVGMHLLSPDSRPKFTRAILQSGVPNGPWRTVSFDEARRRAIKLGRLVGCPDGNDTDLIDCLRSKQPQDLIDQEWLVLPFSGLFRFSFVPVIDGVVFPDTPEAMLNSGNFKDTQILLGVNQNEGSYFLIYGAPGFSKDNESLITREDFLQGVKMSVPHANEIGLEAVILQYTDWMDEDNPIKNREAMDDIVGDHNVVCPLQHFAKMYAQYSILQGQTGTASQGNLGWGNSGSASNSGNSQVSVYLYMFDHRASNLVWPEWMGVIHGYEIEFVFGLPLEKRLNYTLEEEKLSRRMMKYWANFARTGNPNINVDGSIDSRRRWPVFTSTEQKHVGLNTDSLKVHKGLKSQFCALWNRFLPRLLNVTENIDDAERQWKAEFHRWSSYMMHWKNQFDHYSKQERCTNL
T1 sequence (P32749 29-602): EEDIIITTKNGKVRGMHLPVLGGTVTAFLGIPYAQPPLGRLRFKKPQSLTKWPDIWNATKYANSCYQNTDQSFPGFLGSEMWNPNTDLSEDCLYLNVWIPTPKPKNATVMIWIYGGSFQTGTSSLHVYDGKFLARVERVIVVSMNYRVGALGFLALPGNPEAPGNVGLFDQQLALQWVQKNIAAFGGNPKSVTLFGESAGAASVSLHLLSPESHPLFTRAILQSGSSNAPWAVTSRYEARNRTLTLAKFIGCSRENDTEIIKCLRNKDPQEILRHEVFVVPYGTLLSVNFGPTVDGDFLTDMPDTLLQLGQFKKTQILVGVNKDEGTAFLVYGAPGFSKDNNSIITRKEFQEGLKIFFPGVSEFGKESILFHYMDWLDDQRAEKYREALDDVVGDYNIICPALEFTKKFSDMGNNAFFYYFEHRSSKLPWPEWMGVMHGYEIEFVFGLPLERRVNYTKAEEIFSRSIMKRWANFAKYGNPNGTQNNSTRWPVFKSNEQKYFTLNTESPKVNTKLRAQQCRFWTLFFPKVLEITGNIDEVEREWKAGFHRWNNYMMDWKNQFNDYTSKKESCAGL

| Structure (SMILES) | SI [1] | IC50 ([1]; read-out: IC50 AChE) [µM] | IC50 (BChE (from bovine serum); [2]) [µM] | selectivity for inhibiting AChE [1] | IC50 ([1]; read-out: AChE (IC50)) [µM] | IC50 (BChE (from bovine serum); [3]) | selectivity against BChE (BChE (from bovine serum)) | times more potent against BChE than for the AChE enzyme (BChE (from bovine serum); selectivity for BChE) |
| --- | --- | --- | --- | --- | --- | --- | --- | --- |
| O=C1CCCN1C1CCN(CC2CC(c3ccccc3)=NO2)c2ccccc21 (centres unmarked) [5a, 3-phenyl-5-[(4-(2′-oxopyrrolidin-1′-yl)-3,4-dihydroquinolin-1(2H)-yl)-methyl]-4,5 dihydroisoxazole] | 1.06 | 77.37 ± 0.01 | 81.9 ± 0.04 | – | – | – | – | – |
| COc1ccc(C2=NOC(CN3CCC(N4CCCC4=O)c4ccccc43)C2)cc1 (centres unmarked) [5b, 3-(4-methoxyphenyl)-5-[4-((2′-oxopyrrolidin-1′-yl)-3,4-dihydroquinolin-1(2H)-yl)-methyl]-4,5-dihydroisoxazole] | 0.69 | 95.14 ± 0.08 | 65.59 ± 0.006 | – | – | – | – | – |
| COc1ccc(C2=NOC(CN3CCC(N4CCCC4=O)c4ccccc43)C2)cc1OC (centres unmarked) [5c, 3-(3,4-dimethoxyphenyl)-5-[4-((2′-oxopyrrolidin-1′-yl)-3,4-dihydroquinolin-1(2H)-yl)-methyl]-4,5-dihydroisoxazole] | – | 100.65 ± 0.05 | – | – | – | – | – | – |
| COc1cc(C2=NOC(CN3CCC(N4CCCC4=O)c4ccccc43)C2)cc(OC)c1OC (centres unmarked) [5d, 3-(3,4,5-trimethoxyphenyl)-5-[4-((2′-oxopyrrolidin-1′-yl)-3,4-dihydroquinolin-1(2H)-yl)-methyl]-4,5-dihydroisoxazole] | 0.27 | 49.82 ± 0.03 | 13.66 ± 0.01 | – | – | – | – | – |
| Cc1ccc2c(c1)C(N1CCCC1=O)CCN2CC1CC(c2ccccc2)=NO1 (centres unmarked) [5e, 5-[(6-methyl-4-(2′-oxopyrrolidin-1′-yl)-3,4-dihydroquinolin-1(2H)-yl)-methyl]-3-phenyl-4,5-dihydroisoxazole] | 0.17 | 189.1 ± 0.01 | 31.4 ± 0.01 | – | – | – | – | – |
| COc1ccc(C2=NOC(CN3CCC(N4CCCC4=O)c4cc(C)ccc43)C2)cc1 (centres unmarked) [5f, 3-(4-methoxyphenyl)-5-[(6-methyl-4-(2′-oxopyrrolidin-1′-yl)-3,4-dihydroquinolin-1(2H)-yl)-methyl]-4,5-dihydroisoxazole] | 1.43 | 16.31 ± 0.01 | 23.36 ± 0.005 | – | – | – | – | – |
| COc1ccc(C2=NOC(CN3CCC(N4CCCC4=O)c4cc(C)ccc43)C2)cc1OC (centres unmarked) [5g, 3-(3,4-dimethoxyphenyl)-5-[(6-methyl-4-(2′-oxopyrrolidin-1′-yl)-3,4-dihydroquinolin-1(2H)-yl)-methyl]-4,5-dihydroisoxazole] | 0.32 | 99.71 ± 0.01 | 31.49 ± 0.005 | – | – | – | – | – |
| COc1cc(C2=NOC(CN3CCC(N4CCCC4=O)c4cc(C)ccc43)C2)cc(OC)c1OC (centres unmarked) [5h, 5-[(6-methyl-4-(2′-oxopyrrolidin-1′-yl)-3,4-dihydroquinolin-1(2H)-yl)-methyl]-3-(3,4,5-trimethoxyphenyl)-4,5-dihydroisoxazole] | 1.70 | 37.41 ± 0.03 | 63.72 ± 0.001 | – | – | – | – | – |
| COc1ccc2c(c1)C(N1CCCC1=O)CCN2CC1CC(c2ccccc2)=NO1 (centres unmarked) [5i, 5-[(6-methoxy-4-(2′-oxopyrrolidin-1′-yl)-3,4-dihydroquinolin-1(2H)-yl)-methyl]-3-phenyl-4,5-dihydroisoxazole] | 1.79 | 82.04 ± 0.11 | 146.37 ± 0.03 | – | – | – | – | – |
| COc1ccc(C2=NOC(CN3CCC(N4CCCC4=O)c4cc(OC)ccc43)C2)cc1 (centres unmarked) [5j, 3-(4-methoxyphenyl)-5-[(6-methoxy-4-(2′-oxopyrrolidin-1′-yl)-3,4-dihydroquinolin-1(2H)-yl)-methyl]-4,5-dihydroisoxazole] | 1.55 | 93.66 ± 0.006 | 144.71 ± 0.004 | – | – | – | – | – |
| COc1ccc2c(c1)C(N1CCCC1=O)CCN2CC1CC(c2ccc(OC)c(OC)c2)=NO1 (centres unmarked) [5k, 3-(3,4-dimethoxyphenyl)-5-[(6-methoxy-4-(2′-oxopyrrolidin-1′-yl)-3,4-dihydroquinolin-1(2H)-yl)-methyl]-4,5-dihydroisoxazole] | 16.8 | 15.26 ± 0.02 | 255.82 ± 0.01 | significant selectivity | – | – | – | – |
| COc1ccc2c(c1)C(N1CCCC1=O)CCN2CC1CC(c2cc(OC)c(OC)c(OC)c2)=NO1 (centres unmarked) [5l, 5-[(6-methoxy-4-(2′-oxopyrrolidin-1′-yl)-3,4-dihydroquinolin-1(2H)-yl)-methyl]-3-(3,4,5-trimethoxyphenyl)-4,5-dihydroisoxazole] | 0.40 | 109.26 ± 0.01 | 43.67 ± 0.02 | – | – | – | – | – |
| O=C1CCCN1C1CCN(CC2CC(c3ccccc3)=NO2)c2ccc(Cl)cc21 (centres unmarked) [5m, 5-[(6-chloro-4-(2′-oxopyrrolidin-1′-yl)-3,4-dihydroquinolin-1(2H)-yl)-methyl]-3-phenyl-4,5-dihydroisoxazole] | 0.63 | 30.1 ± 0.01 | 19.09 ± 0.01 | significant selectivity | – | – | – | – |
| COc1ccc(C2=NOC(CN3CCC(N4CCCC4=O)c4cc(Cl)ccc43)C2)cc1 (centres unmarked) [5n, 5-[(6-chloro-4-(2′-oxopyrrolidin-1′-yl)-3,4-dihydroquinolin-1(2H)-yl)-methyl]-3-(4-methoxyphenyl)-4,5-dihydroisoxazole] | 5.19 | – | 22 ± 0.02 | significant selectivity | – | – | – | – |
| COc1ccc(C2=NOC(CN3CCC(N4CCCC4=O)c4cc(Cl)ccc43)C2)cc1OC (centres unmarked) [5o, 3-(4,5-dimethoxyphenyl)-5-[(6-chloro-4-(2′-oxopyrrolidin-1′-yl)-3,4-dihydroquinolin-1(2H)-yl)-methyl]-4,5-dihydroisoxazole] | 6.35 | 13.17 ± 0.02 | 83.65 ± 0.01 | significant selectivity | – | – | – | – |
| COc1cc(C2=NOC(CN3CCC(N4CCCC4=O)c4cc(Cl)ccc43)C2)cc(OC)c1OC (centres unmarked) [5p, 5-[(6-chloro-4-(2′-oxopyrrolidin-1′-yl)-3,4-dihydroquinolin-1(2H)-yl)-methyl]-3-(3,4,5-trimethoxyphenyl)-4,5-dihydroisoxazole] | 8.61 | 12.28 ± 0.01 | 106 ± 2 | – | – | – | – | – |
| O=C1CCCN1C1CCN(Cc2cc(-c3ccccc3)no2)c2ccccc21 (centres unmarked) [6a, 3-phenyl-5-((4′-(2′’-oxopyrrolidin-1′’-yl)-3′,4′-dihydroquinolin-1′(2′H)-yl)methyl)isoxazole] | 0.04 | – | – | – | 104.74 ± 0.01 | < 7.18 µM and 4.36 µM | more selective | – |
| COc1ccc(-c2cc(CN3CCC(N4CCCC4=O)c4cc(Br)ccc43)on2)cc1OC (centres unmarked) [6aa, 3-(3,4-dimethoxyphenyl)-5-((6′-bromo-4′-(2′’-oxopyrrolidin-1′’-yl)-3′,4′-dihydroquinolin-1′(2′H)-yl)methyl)isoxazole] | 0.04 | – | – | – | 96.1 ± 0.01 | < 7.18 µM and 3.97 µM | more selective | about 24 times |
| COc1cc(-c2cc(CN3CCC(N4CCCC4=O)c4cc(Br)ccc43)on2)cc(OC)c1OC (centres unmarked) [6ab, 5-((6′-bromo-4′-(2′’-oxopyrrolidin-1′’-yl)-3′,4′-dihydroquinolin-1′(2′H)-yl)methyl)-3-(3,4,5-trimethoxyphenyl)isoxazole] | 0.36 | – | – | – | 148.31 ± 0.004 | 54.09 ± 0.01 µM | – | – |
| COc1ccc(-c2cc(CN3CCC(N4CCCC4=O)c4ccccc43)on2)cc1 (centres unmarked) [6b, 3-(4-methoxyphenyl)-5-((4′-(2′’-oxopyrrolidin-1′’-yl)-3′,4′-dihydroquinolin-1′(2′H)-yl)methyl)isoxazole] | 0.64 | – | – | – | 42.44 ± 0.01 | 27.25 ± 0.003 µM | – | – |
| COc1cc(-c2cc(CN3CCC(N4CCCC4=O)c4ccccc43)on2)cc(OC)c1OC (centres unmarked) [6c, 3-(3,4,5-trimethoxyphenyl)-5-((4′-(2′’-oxopyrrolidin-1′’-yl)-3′,4′-dihydroquinolin-1′(2′H)-yl)methyl)isoxazole] | 2.17 | – | – | – | 22.07 ± 0.01 | 47.96 ± 0.01 µM | – | – |
| Cc1ccc2c(c1)C(N1CCCC1=O)CCN2Cc1cc(-c2ccccc2)no1 (centres unmarked) [6d, 5-((6′-methyl-4′-(2′’-oxopyrrolidin-1′’-yl)-3′,4′-dihydroquinolin-1′(2′H)-yl)methyl)-3-phenylisoxazole] | 0.49 | – | – | – | 37.84 ± 0.01 | 18.51 ± 0.01 µM | – | – |
| COc1ccc(-c2cc(CN3CCC(N4CCCC4=O)c4cc(C)ccc43)on2)cc1 (centres unmarked) [6e, 3-(4-methoxyphenyl)-5-((6′-methyl-4′-(2′’-oxopyrrolidin-1′’-yl)-3′,4′-dihydroquinolin-1′(2′H)-yl)methyl)isoxazole] | 2.62 | – | – | – | 30.43 ± 0.02 | 79.81 ± 0.06 µM | – | – |
| COc1ccc(-c2cc(CN3CCC(N4CCCC4=O)c4cc(C)cc(Cl)c43)on2)cc1OC (centres unmarked) [6f, 5-((8′-chloro-6′-methyl-4′-(2′’-oxopyrrolidin-1′’-yl)-3′,4′-dihydroquinolin-1′(2′H)-yl)methyl)-3-(3,4-dimethoxyphenyl)isoxazole] | 6.76 | – | – | – | 54.71 ± 0.02 | 370.12 ± 0.03 µM | – | – |
| COc1cc(-c2cc(CN3CCC(N4CCCC4=O)c4cc(C)ccc43)on2)cc(OC)c1OC (centres unmarked) [6g, 3-(3,4,5-trimethoxyphenyl)-5-((6′-methyl-4′-(2′’-oxopyrrolidin-1′’-yl)-3′,4′-dihydroquinolin-1′(2′H)-yl)methyl)isoxazole] | 1.07 | – | – | – | 72.94 ± 0.02 | 78.16 ± 0.01 µM | – | – |
| COc1ccc2c(c1)C(N1CCCC1=O)CCN2Cc1cc(-c2ccccc2)no1 (centres unmarked) [6h, 5-((6′-methoxy-4′-(2′’-oxopyrrolidin-1′’-yl)-3′,4′-dihydroquinolin-1′(2′H)-yl)methyl)-3-phenylisoxazole] | 0.08 | – | – | – | 52.76 ± 0.01 | < 7.18 µM and 4.33 µM | more selective | – |
| COc1ccc(-c2cc(CN3CCC(N4CCCC4=O)c4cc(OC)ccc43)on2)cc1 (centres unmarked) [6i, 3-(4-methoxyphenyl)-5-((6′-methoxy-4′-(2′’-oxopyrrolidin-1′’-yl)-3′,4′-dihydroquinolin-1′(2′H)-yl)methyl)isoxazole] | 2.52 | – | – | – | 84.51 ± 0.01 | 213.22 ± 0.01 µM | – | – |
| CCc1ccc2c(c1)C(N1CCCC1=O)CCN2Cc1cc(-c2cc(OC)c(OC)c(OC)c2)no1 (centres unmarked) [6t, 5-((6′-ethyl-4′-(2′’-oxopyrrolidin-1′’-yl)-3′,4′-dihydroquinolin-1′(2′H)-yl)methyl)-3-(3,4,5-trimethoxyphenyl)isoxazole] | – | – | – | – | 66.77 ± 0.01 | – | – | – |
| COc1ccc2c3c1O[C@H]1C[C@@H](O)C=C[C@@]31CCN(C)C2 [Galantamine, galantamine, reference compound] | – | – | 8.8 ± 0.5 | – | – | 8.8 ± 0.5 µM | – | – |
